Test results: patent US20230117034A1, “PYRAZOLOTRIAZINES” (Bayer Aktiengesellschaft, priority 2019, published 2023)
Where two headings read alike, the source gives them in different places.

Key:
CDK2/CycE = target: T1, CDK2/CycE (Homo sapiens, UniProt P24941); experiment: CDK2/CycE kinase assay (TR-FRET, 2 mM ATP); format: biochemical; conditions: 2 mM ATP (high ATP); median; read-out: CDK2/CyclinE, 2 mM ATP (high ATP), IC50 (median)
T1 construct: purchased ProQinase GmbH (Freiburg, Germany); host or cells: insect cells (Sf9)
Outline: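 GST-tagged human CDK2 and CycE from Sf9 cells, about 10 ng/ml, pre-incubated 15 min at 22 °C with compound in Tris/HCl pH 8.0 buffer. Reaction with 2 mM ATP and 0.75 µM biotinylated peptide for 25 min at 22 °C. Phospho-RB antibody TR-FRET (665/620 nm ratio) read after 1 h; data normalised to no-inhibitor and no-enzyme controls.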

[1] = tested on: CAL-120, human breast adenocarcinoma cells; experiment: Proliferation assay CAL-120 (crystal violet, 4 days); format: cell-based; conditions: CAL-120 cells, median, read-out: Prolif-CAL-120, IC50-[mol/l] (median)
Outline: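 Cells seeded at 4,000/well in medium with 10% FCS; after 24 h, compounds added at 0.01-10 µmol/L (0.1% DMSO) for 4 days. Glutaraldehyde-fixed, crystal violet-stained, absorbance at 595 nm normalized to zero-point plate (0%) and untreated cells (100%); IC50 by 4-parameter fit.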

[2] = tested on: BRCA1 mRNA expression in MDA-MB-231 cells; experiment: qRT-PCR assay: BRCA1 mRNA expression in MDA-MB-231; format: cell-based, human; conditions: Homo sapiens, MDA-MB-231, Inhibition of BRCA1 mRNA expression in MDA-MB-231 cells; median; read-out: RTqPCR-MDA-MB-231, IC50, BRCA1 (median)
Outline: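 Cells were seeded at 200,000 cells/well, left 24 h, then exposed continuously to test substances for 24 h. Total RNA (600 ng) was reverse-transcribed to cDNA and amplified by qPCR, and transcript levels were normalised to GAPDH housekeeping expression.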

Row | Structure (SMILES) | IC50 (CDK2/CycE) [nM] | IC50 ([1]; Homo sapiens, CAL-120, 96 h) [nM] | IC50 [2] [nM] | IC50 [1] [nM]
1 | CN1CCN(c2nc(NCc3nc4ccccc4[nH]3)n3ncc(C(F)(F)F)c3n2)CC1 [Example 297, N-[(1H-benzimidazol-2-yl)methyl]-2-(4-methylpiperazin-1-yl)-8-(trifluoromethyl)pyrazolo[1,5-a][1,3,5]triazin-4-amine] | 13300 | 22.3 | 51.5 | 
2 | NC1CCN(c2nc(NCc3nc4ccccc4[nH]3)n3ncc(Br)c3n2)CC1 [Example 256, 2-(4-aminopiperidin-1-yl)-N-[(1H-benzimidazol-2-yl)methyl]-8-bromopyrazolo[1,5-a][1,3,5]triazin-4-amine] | 5060 | 9.97 | 6.46 | 
3 | N[C@@H]1CCN(c2nc(NCc3nc4ccccc4[nH]3)n3ncc(Br)c3n2)C1 [Example 250, 2-[(3R)-3-aminopyrrolidin-1-yl]-N-[(1H-benzimidazol-2-yl)methyl]-8-bromopyrazolo[1,5-a][1,3,5]triazin-4-amine] | 12800 | 3.49 | 10.5 | 
4 | CN[C@H]1CCN(c2nc(NCc3nc4ccccc4[nH]3)n3ncc(Br)c3n2)C1 [Example 252, N-[(1H-benzimidazol-2-yl)methyl]-8-bromo-2-[(3S)-3-(methylamino)pyrrolidin-1-yl]pyrazolo[1,5-a][1,3,5]triazin-4-amine] | 13300 | 38.7 | 10.2 | 
5 | NC12CC1CN(c1nc(NCc3nc4ccccc4[nH]3)n3ncc(Br)c3n1)C2 (stereo not drawn) [Example 258, 2-(1-amino-3-azabicyclo[3.1.0]hexan-3-yl)-N-(1H-benzimidazol-2-ylmethyl)-8-bromo-pyrazolo[1,5-a][1,3,5]triazin-4-amine] | 3100 | 27.9 | 12.1 | 
6 | Brc1cnn2c(NCc3nc4ccccc4[nH]3)nc(N3C[C@H]4CNC[C@H]4C3)nc12 [Example 283, N-[(1H-benzimidazol-2-yl)methyl]-8-bromo-2-[(3aR,6aS)-hexahydropyrrolo[3,4-c]pyrrol-2(1H)-yl]pyrazolo[1,5-a][1,3,5]triazin-4-amine] | 7620 | 26.1 | 9.13 | 
7 | FC(F)(F)Cc1cnn2c(NCc3nc4cc(Cl)c(Cl)cc4[nH]3)nc(N3CCOCC3)nc12 [Example 302, N-[(5,6-dichloro-1H-benzimidazol-2-yl)methyl]-2-(morpholin-4-yl)-8-(2,2,2-trifluoroethyl)pyrazolo[1,5-a][1,3,5]triazin-4-amine] | > 20000 | 8.98 | 9.06 | 
8 | FC(F)(F)Cc1cnn2c(NCc3nc4cc(Cl)ccc4[nH]3)nc(N3CCOCC3)nc12 [Example 299, N-[(5-chloro-1H-benzimidazol-2-yl)methyl]-2-(morpholin-4-yl)-8-(2,2,2-trifluoroethyl)pyrazolo[1,5-a][1,3,5]triazin-4-amine] | > 20000 | 4.71 | 8.86 | 
9 | Brc1cnn2c(NCc3nc4ccccc4[nH]3)nc(N3C[C@H]4CC[C@@H]3CN4)nc12 (single isomer, unassigned) [Example 316, N-[(1H-benzimidazol-2-yl)methyl]-8-bromo-2-{[1R or S-(1R*4R*)]-2,5-diazabicyclo[2.2.2]octan-2-yl}pyrazolo[1,5-a][1,3,5]triazin-4-amine] | 284 | 7.16 | 12.4 | 
10 | Cc1ccnc2[nH]c(CNc3nc(N4CCOCC4)nc4c(Br)cnn34)nc12 [Example 20, 8-bromo-N-[(7-methyl-3H-imidazo[4,5-b]pyridin-2-yl)methyl]-2-(morpholin-4-yl)pyrazolo[1,5-a][1,3,5]triazin-4-amine] | 1720 | 14.2 | 6.81 | 
11 | CC1CN(C)CCN1c1nc(NCc2nc3ccccc3[nH]2)n2ncc(Br)c2n1 (single isomer, unassigned; enantiomer 1) [Example 260, N-(1H-benzimidazol-2-ylmethyl)-8-bromo-2-[(2R or S)-2,4-dimethylpiperazin-1-yl]pyrazolo[1,5-a][1,3,5]triazin-4-amine (Enantiomer 1)] | 2980 |  | 3.42 | 6.03

The next lines start with the values.

Row | IC50 (CDK2/CycE) [nM] | IC50 ([1]; Homo sapiens, CAL-120, 96 h) [nM] | IC50 [2] [nM] | IC50 [1] [nM] | Structure (SMILES)
12 | > 20000 | 20.8 | 10.6 |  | Fc1ccc2[nH]c(CNc3nc(N4CCOCC4)nc4c(C5CC5(F)F)cnn34)nc2c1 (racemic) [Example 286, 8-[(1RS)-2,2-difluorocyclopropyl]-N-[(5-fluoro-1H-benzimidazol-2-yl)methyl]-2-(morpholin-4-yl)pyrazolo[1,5-a][1,3,5]triazin-4-amine]
13 | > 20000 | 12.1 | 10.3 |  | CN1CCN(c2nc(NCc3nc4ccccc4[nH]3)n3ncc(C4CC4)c3n2)CC1 [Example 246, N-[(1H-benzimidazol-2-yl)methyl]-8-cyclopropyl-2-(4-methylpiperazin-1-yl)pyrazolo[1,5-a][1,3,5]triazin-4-amine]
14 | > 20000 | 5.74 | 6.73 |  | Clc1cc2nc(CNc3nc(N4CCOCC4)nc4c(C5CC5)cnn34)[nH]c2cc1Cl [Example 301, 8-cyclopropyl-N-[(5,6-dichloro-1H-benzimidazol-2-yl)methyl]-2-(morpholin-4-yl)pyrazolo[1,5-a][1,3,5]triazin-4-amine]
15 | > 20000 | 13 | 35.7 |  | Fc1ccc2[nH]c(CNc3nc(N4CCOCC4)nc4c(C5CC5(F)F)cnn34)nc2c1 (single isomer, unassigned) [Example 314, 8-[(1R or S)-2,2-difluorocyclopropyl]-N-[(5-fluoro-1H-benzimidazol-2-yl)methyl]-2-(morpholin-4-yl)pyrazolo[1,5-a][1,3,5]triazin-4-amine]
16 | > 20000 | 5.59 | 3.23 |  | Fc1ccc2[nH]c(CNc3nc(N4CCOCC4)nc4c(CC(F)(F)F)cnn34)nc2c1F [Example 268, N-[(4,5-difluoro-1H-benzimidazol-2-yl)methyl]-2-(morpholin-4-yl)-8-(2,2,2-trifluoroethyl)pyrazolo[1,5-a][1,3,5]triazin-4-amine]
17 | > 20000 | 28.9 | 28.8 |  | c1ccc2[nH]c(CNc3nc(N4CCOCC4)nc4c(C5CCC5)cnn34)nc2c1 [Example 263, N-[(1H-benzimidazol-2-yl)methyl]-8-cyclobutyl-2-(morpholin-4-yl)pyrazolo[1,5-a][1,3,5]triazin-4-amine]
18 | > 20000 | 8.7 | 6.32 |  | Fc1ccc2[nH]c(CNc3nc(N4CCOCC4)nc4c(C5CCC5)cnn34)nc2c1F [Example 264, 8-cyclobutyl-N-[(4,5-difluoro-1H-benzimidazol-2-yl)methyl]-2-(morpholin-4-yl)pyrazolo[1,5-a][1,3,5]triazin-4-amine]
19 | > 12900 | 4.89 | 1.92 |  | Fc1cccc2[nH]c(CNc3nc(N4CCOCC4)nc4c(C(F)(F)F)cnn34)nc12 [Example 274, N-[(4-fluoro-1H-benzimidazol-2-yl)methyl]-2-(morpholin-4-yl)-8-(trifluoromethyl)pyrazolo[1,5-a][1,3,5]triazin-4-amine]
20 | > 5190 | 3.01 | 2.8 |  | CN(CC(C)(C)O)c1nc(NCc2nc3c(F)c(F)ccc3[nH]2)n2ncc(C3CC3)c2n1 [Example 292, 1-[(8-cyclopropyl-4-{[(4,5-difluoro-1H-benzimidazol-2-yl)methyl]amino}pyrazolo[1,5-a][1,3,5]triazin-2-yl)(methyl)amino]-2-methylpropan-2-ol]
21 | 4560 | 2.62 | 3.01 |  | Fc1ccc2[nH]c(CNc3nc(N4CCOCC4)nc4c(Br)cnn34)nc2c1F [Example 25, 8-bromo-N-[(4,5-difluoro-1H-benzimidazol-2-yl)methyl]-2-(morpholin-4-yl)pyrazolo[1,5-a][1,3,5]triazin-4-amine]
22 | > 20000 | 2.8 | 0.97 |  | Fc1cc2nc(CNc3nc(N4CCOCC4)nc4c(C5CC5)cnn34)[nH]c2cc1F [Example 318, 8-cyclopropyl-N-[(5,6-difluoro-1H-benzimidazol-2-yl)methyl]-2-(morpholin-4-yl)pyrazolo[1,5-a][1,3,5]triazin-4-amine]
23 | 2060 | 7.25 | 4.81 |  | CN(CC(C)(C)O)c1nc(NCc2nc3c(F)cccc3[nH]2)n2ncc(C3CC3)c2n1 [Example 295, 1-[(8-cyclopropyl-4-{[(4-fluoro-1H-benzimidazol-2-yl)methyl]amino}pyrazolo[1,5-a][1,3,5]triazin-2-yl)(methyl)amino]-2-methylpropan-2-ol]
24 | > 20000 | 4.6 | 8.07 |  | Fc1cc2nc(CNc3nc(N4CCOCC4)nc4c(C5CC5)cnn34)[nH]c2cc1Cl [Example 307, N-[(6-chloro-5-fluoro-1H-benzimidazol-2-yl)methyl]-8-cyclopropyl-2-(morpholin-4-yl)pyrazolo[1,5-a][1,3,5]triazin-4-amine]
